± gives the uncertainty stated by the source.

One data set relates to THP-1. The experiment in a line: efficacy of IL-8 induction relative to DMSO (% activity); higher = stronger induction. The note with it: exposure time: 18 h.
For data set [1], the system named is lysine peptide Ac-RFAAKAA-COOH. Kind of data set: efficacy of lysine peptide change (negative = depletion) (% activity); higher = less depletion. The note with it: incubation time: 24 h.
Data set [2] relates to cysteine peptide Ac-RFAACAA-COOH. Kind of data set: efficacy of cysteine peptide change (negative = depletion) (% activity); higher = less depletion. The note with it: incubation time: 24 h.
For data set [3], the system named is KeratinoSens (HaCaT ARE-luciferase) cells. The experiment in a line: efficacy of ARE luciferase induction relative to DMSO (% activity over DMSO); higher = stronger induction. The note with it: exposure time: 24 h.
For data set [4] the test system is unchanged. Kind of data set: cytotoxicity AC50 (CellTiter-Fluor viability); higher = less cytotoxic. As to conditions: exposure time: 24 h.

On to `CC(=O)C1(C)CC2=C(CCCC2(C)C)CC1C` (configuration not stated), for which, in the data set on THP-1, the “efficacy of IL-8 induction” value was 5.26 ± 9.1. In data set [1], the “efficacy of lysine peptide change” value came out at 3.3 ± 5.7. Besides, in data set [2], the “efficacy of cysteine peptide change” value is -16.5 ± 5.3. Besides, the “efficacy of ARE luciferase induction” value in data set [3] is 13.2 ± 8.8.

As to `CC[C@H]1CC[C@H](NCc2cc3c(cc2OC)[C@H]2C[C@H]2C(=O)N3C)[C@H](c2ccccc2)N1`, the “cytotoxicity AC50” value in data set [4] is 26.4 ± 4.7 µM. In addition, in the data set on THP-1, the “efficacy of IL-8 induction” value turned out to be 18.9 ± 3.4. The “efficacy of ARE luciferase induction” value in data set [3] is 82.8 ± 33.

Take `CC(C)CC(NC(=O)OCC1c2ccccc2-c2ccccc21)C(=O)O` (stereo in doubt) [N-(9-Fluorenylmethoxycarbonyl)-L-leucine]: the “efficacy of IL-8 induction” value in the data set with THP-1 stood at 6.39 ± 11. Besides, in data set [1], the “efficacy of lysine peptide change” value was found to be 0.13 ± 15. In data set [2], the “efficacy of cysteine peptide change” value is -6.72 ± 6. In addition, the “efficacy of ARE luciferase induction” value in data set [3] came to 65 ± 53.

In the case of `c1ccc(-c2cccc(-c3ccccc3)c2)cc1` [1,1':3',1''-Terphenyl], the “efficacy of IL-8 induction” value with THP-1 was 9.01 ± 8.6. Moreover, the “efficacy of lysine peptide change” value in data set [1] turned out to be 7.59 ± 13. In addition, the “efficacy of cysteine peptide change” value in data set [2] is -4.8 ± 8.3. For the same molecule, the “efficacy of ARE luciferase induction” value in data set [3] was determined as 21.9 ± 16.

Take `c1ccc(SCCSc2ccccc2)cc1` [1,2-Bis(phenylthio)ethane]: in the data set on THP-1, the “efficacy of IL-8 induction” value is 0. The “efficacy of lysine peptide change” value in data set [1] is -9.19 ± 10. In data set [2], the “efficacy of cysteine peptide change” value turned out to be 3.83 ± 6.6. In data set [3], the “efficacy of ARE luciferase induction” value amounted to 40.6 ± 11.

Regarding `O=[N+]([O-])c1cc([N+](=O)[O-])c2ccccc2c1` [1,3-Dinitronaphthalene], in the data set with THP-1, the “efficacy of IL-8 induction” value amounted to 0. Also, the “efficacy of lysine peptide change” value in data set [1] was -15.1 ± 14. The “efficacy of cysteine peptide change” value in data set [2] was -32.4 ± 17. Besides, in data set [3], the “efficacy of ARE luciferase induction” value stood at 29.3 ± 10.

For `CCC(=O)C=Cc1ccc(OC)cc1` [1-(4-Methoxyphenyl)-1-pentene-3-one], in the data set on THP-1, the “efficacy of IL-8 induction” value was determined as 0. For the same molecule, the “efficacy of lysine peptide change” value in data set [1] came to 29.4 ± 1.8. Besides, in data set [2], the “efficacy of cysteine peptide change” value is -4.91 ± 8.5. For the same molecule, the “efficacy of ARE luciferase induction” value in data set [3] was -11.5 ± 51.

On to `CC(C)(C)C(=O)CCl` [1-Chloro-3,3-dimethyl-butan-2-one], for which the “efficacy of IL-8 induction” value in the data set with THP-1 came to 5.09 ± 4.6. Besides, the “efficacy of lysine peptide change” value in data set [1] was -4.45 ± 16. In data set [2], the “efficacy of cysteine peptide change” value was -43.1 ± 7.6. Further, the “efficacy of ARE luciferase induction” value in data set [3] turned out to be 26.8 ± 9.2.

Take `CCCCCCCCCCCCO` [1-Dodecanol]: the “efficacy of IL-8 induction” value in the data set on THP-1 was found to be 0. For the same molecule, the “efficacy of lysine peptide change” value in data set [1] was -9.21 ± 17. The “efficacy of cysteine peptide change” value in data set [2] was found to be 0. In addition, the “efficacy of ARE luciferase induction” value in data set [3] was found to be 9.49 ± 13.

`c1ccc(-c2ccccn2)nc1` [2,2'-Dipyridyl]: in the data set with THP-1, the “efficacy of IL-8 induction” value was determined as 0. For the same molecule, the “efficacy of lysine peptide change” value in data set [1] is -0.86 ± 12. For the same molecule, the “efficacy of cysteine peptide change” value in data set [2] was -15.1 ± 3.5. The “efficacy of ARE luciferase induction” value in data set [3] turned out to be 45.2 ± 39.

For `O=[N+]([O-])c1cc(Cl)c(Cl)c(Cl)c1Cl` [2,3,4,5-Tetrachloronitrobenzene], the “cytotoxicity AC50” value in data set [4] was 44.9 ± 5.2 µM. Moreover, in the data set on THP-1, the “efficacy of IL-8 induction” value stood at 49.5 ± 10. In addition, the “efficacy of lysine peptide change” value in data set [1] was -3.6 ± 17. The “efficacy of cysteine peptide change” value in data set [2] is -5.15 ± 8.9. For the same molecule, in data set [3], the “efficacy of ARE luciferase induction” value was found to be 42.4 ± 36.

For the molecule `Nc1ccc(Cl)cc1Cl` [2,4-Dichloroaniline], the “efficacy of IL-8 induction” value with THP-1 was 8.9 ± 7.7. Besides, in data set [1], the “efficacy of lysine peptide change” value is 6.42 ± 18. Further, the “efficacy of cysteine peptide change” value in data set [2] was 0. In addition, the “efficacy of ARE luciferase induction” value in data set [3] was 3.01 ± 5.2.

With `CC(C)c1ccc2cc(C(C)C)ccc2c1` [2,6-Diisopropylnaphthalene], the “efficacy of IL-8 induction” value in the data set with THP-1 came out at 2.46 ± 4.3. In addition, the “efficacy of lysine peptide change” value in data set [1] worked out at 1.65 ± 26. Further, in data set [2], the “efficacy of cysteine peptide change” value was 7.33 ± 6.5. In data set [3], the “efficacy of ARE luciferase induction” value stood at 28.7 ± 11.

`CCCCCCCCCCCCOCCO` [2-(Dodecyloxy)ethanol]: in the data set with THP-1, the “efficacy of IL-8 induction” value was -3.05 ± 5.3. Moreover, in data set [1], the “efficacy of lysine peptide change” value was 3.27 ± 16. In data set [2], the “efficacy of cysteine peptide change” value worked out at 73.8. In addition, in data set [3], the “efficacy of ARE luciferase induction” value is 8.82 ± 15.

`Oc1ccc(-c2ccccc2)cc1Cl` [2-Chloro-4-phenylphenol]: the “efficacy of IL-8 induction” value with THP-1 worked out at 3.65 ± 6.3. Besides, the “efficacy of lysine peptide change” value in data set [1] is 3.75 ± 3.3. In addition, the “efficacy of cysteine peptide change” value in data set [2] came to 0.73 ± 13. Also, the “efficacy of ARE luciferase induction” value in data set [3] is 22.4 ± 9.2.

`CCCCCCC(C)O` (configuration not stated) [2-Octanol]: in the data set with THP-1, the “efficacy of IL-8 induction” value came to 0. For the same molecule, the “efficacy of lysine peptide change” value in data set [1] was -5.58 ± 9.7. The “efficacy of cysteine peptide change” value in data set [2] is 0. The “efficacy of ARE luciferase induction” value in data set [3] was determined as 0.

`CCCCOCCOCCOCCO` [2-[2-(2-Butoxyethoxy)ethoxy]ethanol]: the “efficacy of IL-8 induction” value in the data set on THP-1 was 3.34 ± 5.8. In addition, in data set [1], the “efficacy of lysine peptide change” value worked out at 207 ± 33. Also, in data set [2], the “efficacy of cysteine peptide change” value turned out to be 37.2 ± 7.3. Further, the “efficacy of ARE luciferase induction” value in data set [3] was 75.4 ± 120.

Turning to `COc1ccc(O)c(C(C)(C)C)c1` [2-tert-Butyl-4-methoxyphenol], the “efficacy of IL-8 induction” value in the data set with THP-1 was 1.96 ± 3.4. For the same molecule, the “efficacy of lysine peptide change” value in data set [1] amounted to 5.8 ± 5. Moreover, the “efficacy of cysteine peptide change” value in data set [2] is -37.3 ± 14. In addition, the “efficacy of ARE luciferase induction” value in data set [3] was 4.91 ± 25.

The record behind these values is the supplement of paper PMC10933113.
